Assay results as given in paper PMC8811472, “Systematic In Vitro Evaluation of a Library of Approved and Pharmacologically Active Compounds for the Identification of Novel Candidate Drugs for KMT2A-Rearranged Leukemia” (Frontiers in Oncology, 2022).

Assays:
[1] = system: KMT2A-r PER-485 and KMT2A-wt REH cells; experiment: 72-hour resazurin-based viability assay, PER-485 versus REH; format: cell-based, human
Protocol: (§1) The cytotoxicity of drugs was assessed through resazurin-based assays and the inhibitory concentration resulting in 50% reduction of cell survival relative to control (IC50) was calculated as previously described ([7]). In synergy studies, cells were exposed to a dilution series of compounds, as single agents or in combination, in resazurin-based assays (72 hours) as described ([8]–[10]). The occurrence of synergy was determined with the Bliss Independence model as previously described ([8]–[10]). Bliss Prediction curves indicated the predicted percentage viability of the cells when exposed to the combination of compounds if both compounds work additively together. Synergy was visualised as the presence of a lower cell viability upon combination of two compounds compared to the viability predicted based on the presence of an additive effect of the compounds (i.e., the viability curve of the combination runs below the Bliss Prediction curve). The percentage of apoptotic cells was assessed by annexin V and 7-Aminoactinomycin D (7-AAD) (BD Biosciences, Australia) flow cytometry as previously described ([7]).

REH cells = experiment: 72-hour resazurin-based cytotoxicity assay, REH; parameters: species or system human; conditions: Homo sapiens, KMT2A-wt, pre-B cell ALL
Protocol: (§2) All cell lines used in this study were mycoplasma-free and have been authenticated using STR profiling. Cells were cultured as previously described ([7], [8]). Characteristics of the leukemia cell lines used in this study are described in Supplementary Table 1 . Peripheral blood mononuclear cells from healthy donors were purchased from Australian Red Cross.
as §1

RS4;11 cells = experiment: 72-hour resazurin-based cytotoxicity assay, RS4;11; parameters: species or system human; conditions: Homo sapiens, RS4-11, 72 h, RS4;11, KMT2A-r t(4;11), pre-B cell ALL
Protocol: as §2, §1

CEM cells = experiment: 72-hour resazurin-based cytotoxicity assay, CEM; parameters: species or system human; conditions: Homo sapiens, CCRF-CEM, KMT2A-wt, childhood T-cell ALL
Protocol: as §2, §1

THP-1 cells = experiment: 72-hour resazurin-based cytotoxicity assay, THP-1; format: cell-based, human; conditions: Homo sapiens, THP-1, KMT2A-r t(9;11), infant AML
Protocol: as §2, §1

Jurkat cells = experiment: 72-hour resazurin-based cytotoxicity assay, Jurkat; parameters: species or system human; conditions: Homo sapiens, KMT2A-wt, childhood T-cell ALL
Protocol: as §2, §1

SEMK2 cells = experiment: 72-hour resazurin-based cytotoxicity assay, SEMK2; parameters: species or system human; conditions: Homo sapiens, SEMK2, KMT2A-r t(4;11), pre-B cell childhood ALL
Protocol: as §2, §1

PER-485 cells = experiment: 72-hour resazurin-based cytotoxicity assay, PER-485; format: cell-based, human; conditions: Homo sapiens, PER-485, KMT2A-r t(4;11), infant ALL derived
Protocol: as §2, §1

MOLM-13 cells = experiment: 72-hour resazurin-based cytotoxicity assay, MOLM-13; format: cell-based, human; conditions: Homo sapiens, MOLM-13, KMT2A-r t(9;11), AML
Protocol: as §2, §1

MRC-5 cells = experiment: 72-hour resazurin-based cytotoxicity assay, MRC-5; format: cell-based, human; conditions: Homo sapiens, MRC5, MRC-5, non-malignant, normal lung
Protocol: as §2, §1

Row | Compound | selective cytotoxicity towards KMT2A-r leukemia cells [1] | IC50 (REH cells) [µM] | IC50 (RS4;11 cells) [µM] | IC50 (CEM cells) [µM] | IC50 (THP-1 cells) [µM] | IC50 (Jurkat cells) [µM] | IC50 (SEMK2 cells) [µM] | IC50 (PER-485 cells) [µM] | IC50 (MOLM-13 cells) [µM] | IC50 (MRC-5 cells) [µM]
1 | CCCCCCCOc1ccc(O)cc1 [AC-45594] | did not display selective cytotoxicity | – | – | – | – | – | – | – | – | –
2 | CN(C(=O)CN(CCO)CC(=O)N(C)C(C)(C)Cc1ccccc1)C(C)(C)Cc1ccccc1 [Oxethazaine, oxethazaine] | – | 4.9 | 9 | 10.6 | 15 | 18.9 | 8.9 | 3.6 | 3.8 | > 20
